Test results: US11242353B2, “Heterocyclic LSF inhibitors and their uses” (TRUSTEES OF BOSTON UNIVERSITY, priority 2020, dated 2022)
Read-outs that look alike come from different tables or passages of the source.

System: Huh7 cells
Assay: growth inhibition of Huh7 cells
Type: cell-based
Conditions: single trials per figure (FIGS. 1A-4)
Method: FIGS. 1A-4 show results for growth inhibition of Huh7 cells upon contact with compounds (FQI-37Q), (FQI-34Q), (FQI-1Q), (JAK 196-22), and (JAK 196.23). Compounds (FQI-37Q) and (FQI-34Q) show high activities (GI50 about 0.5 μM and lower).

[1] = Homo sapiens, Huh-7, Huh7 cells, read-out: GI50 (growth inhibition of Huh7 cells)

Row | Compound | GI50 [1] [µM] | further results
1 | CCOc1ccccc1N1CC(=O)Nc2cc3c(cc21)OCO3 [FQI-1Q, 8-(2-ethoxyphenyl)-7,8-dihydro-[1,3]dioxolo[4,5-g]quinoxalin-6(5H)-one] | 3.6 | 
2 | CCOc1cc(N(C)C)ccc1N1CC(=O)Nc2cc3c(cc21)OCO3 [FQI-34Q, 8-(4-(dimethylamino)-2-ethoxyphenyl)-7,8-dihydro-[1,3]dioxolo[4,5-g]quinoxalin-6(5H)-one] |  | GI50 (Homo sapiens, Huh-7, read-out: GI50 (growth inhibition of Huh7 cells), Huh7 cells): ≤ 0.5 µM
3 | CCOc1cc(N(C)C)ccc1N1CC(=O)Nc2cc3c(cc21)OCCO3 [FQI-37Q, 9-(4-(dimethylamino)-2-ethoxyphenyl)-2,3,8,9-tetrahydro-[1,4]dioxino[2,3-g]quinoxalin-7(6H)-one] |  | GI50 (read-out: GI50 (growth inhibition of Huh7 cells), Huh7 cells): 0.501 µM
4 | COc1cc([N+](=O)[O-])ccc1-n1c(=O)cnc2cc3c(cc21)OCO3 [JAK 196-22] | > 10 | 
